# From patent US20240374487A1, “ANTI-AGING AGENT, COSMETIC PRODUCT, WET TOWEL, AND HYGIENE PRODUCT” (VB JAPAN TECHNOLOGY CO., LTD., priority 2021, published 2024)
# Legend:
# AQP-1 = AQP-1 mRNA level under oxidative stress (qRT-PCR); assay type: cell-based, human
# Procedure: (§1) Normal human dermal fibroblasts were cultured for 2 hours in a culture solution to which 0.2 mM hydrogen peroxide was added, then washed off with PBS, and replaced with a normal medium to continue the cultivation. VB2 and VB3 were each added at any timing before or after hydrogen peroxide was added, and co-cultured for 4 hours. Thereafter, the cells or the culture solution were recovered.
# (§2) According to the procedure described in “Measurement of Cell Viability” above, normal human dermal fibroblasts were treated and cultured (co-culture), and cells or the culture solution was recovered. The notation of the sample in FIGS. 8 and 9, which are graphs showing the results, is also the same as in the “Measurement of Cell Viability” described above.
# (§3) The measurement of aquaporin was performed for AQP-1 and AQP-3 by a qRT-PCR method, and the measurement result was obtained by a ΔΔCt method. […] The qRT-PCR method is s specifically described in “qRT-PCR method” described later.
# (§4) The qRT-PCR method used for the measurement of AGE receptor, heat shock protein, aquaporin, hyaluronic acid, and Elastin will be described. In the qRT-PCR method, 500 ng of the obtained total RNA was used as a template for PCR, and one step RT-PCR capable of performing CDNA synthesis by a reverse transcription reaction (Reverse Transcriptase; RT reaction) and quantitative PCR in one test tube was performed using Luna Universal One-Step qRT-PCR Kit.
# (§5) As a PCR device, Thermal Cycler Dice Real Time System II manufactured by Takara was used. As one reaction system, 10 μL of Luna Universal One-Step Reaction Mix (2×), 1 μL of Luna WarmStart RT Enzyme Mix (20×), 0.8 μL of Forward primer (10 μM), 0.8 μL of Reverse primer, and Total RNA as a template for the PCR were used, and the total amount was adjusted to 20 μL in Nuclease-free Water.
# (§6) The reaction was performed under the conditions of 1 cycle of 30 seconds at 95° C., and further cycles of 5 seconds at 95° C. and 30 seconds at 60° C. for 50 cycles. A variation in mRNA expression by 4 times or more (2 cycles as PCR reaction) was determined as a significant difference.
# RAGE = RAGE mRNA level by qRT-PCR in AGE-treated fibroblasts; assay type: cell-based, human; conditions: co-existence with AGE 100 μg/mL, 4 hours, compared with AGE single stimulation group
# Procedure: (§7) Normal human dermal fibroblasts (NHDF), juvenile foreskin (C-12300, PromoCell) were cultured in a dedicated medium, Fibroblast Growth Medium (C-23010, PromoCell) at 37° C. in a 5% CO2 incubator.
# (§8) First, as a co-existence group of VB and AGE, normal human dermal fibroblasts were treated with AGE (100 μg/mL), and the above VB2 (concentration after dilution: 115 μg/ml) and VB3 (concentration after dilution: 1000 μg/mL) diluted to an accurate 1/1000 amount were each added and retained at 37° C. for 4 hours. […]
# (§9) Then, total RNA was extracted from the cells using Trizol reagent (Ambion), and mRNA levels of AGE receptor (FEEL-1, FEEL-2, CD-36, AGE-R1, AGE-R2, AGE-R3 and RAGE) and heat shock protein (Hsp104, gp96, Hsp90, Hsp70, Hsp60, and Hsp32) were measured by qRT-PCR (one-step quantitative reverse transcription-polymerase chain reaction) method. […]
# as §4, with “Kit. […]” for “Kit.”
# FEEL-1 = FEEL-1 mRNA level by qRT-PCR in AGE-treated fibroblasts; assay type: cell-based, human; conditions: co-existence with AGE 100 μg/mL, 4 hours, compared with AGE single stimulation group
# Procedure: as §7, §8, §9
# as §4, with “Kit. […]” for “Kit.”
# FEEL-2 = FEEL-2 mRNA level by qRT-PCR in AGE-treated fibroblasts; assay type: cell-based, human; conditions: co-existence with AGE 100 μg/mL, 4 hours, compared with AGE single stimulation group
# Procedure: as §7, §8, §9
# as §4, with “Kit. […]” for “Kit.”
# [1] = tested on: normal human dermal fibroblasts; assay: Cell viability under hydrogen peroxide oxidative stress (Cell counting-8 kit); assay type: cell-based; conditions: for cell viability, trend: 1-300 μg/mL
# Procedure: as §7, §1
# In FIG. 5 which is a graph showing the results, a sample obtained by adding VB2 or VB3 after adding hydrogen peroxide was denoted as “H2O2-VB2” and “H2O2-VB3”, respectively, and a sample obtained by adding hydrogen peroxide after adding VB2 or VB3 was denoted as “VB2-H2O2” and “VB3-H2O2”, respectively.
# Here, VB2 and VB3 were added at concentrations of 1 μg/mL, 10 μg/mL, 100 μg/mL, and 300 μg/mL, respectively.
# The normal human dermal fibroblasts to which neither hydrogen peroxide nor VB2 nor VB3 was added were treated in the same manner as described above, and measured as Control. In addition, a sample to which VB2 or VB3 was not added (in FIG. 5, it is denoted as “H2O2”) was also treated in the same manner as described above, and measurement was performed.
# The number of surviving cells in normal human dermal fibroblasts was measured using Cell counting −8 kit (DOJINDO: , Japan).
# intracellular ROS [2] = assay: Intracellular ROS production against hydrogen peroxide (DCF-DA); assay type: cell-based, human; conditions: added before and after 0.2 mM hydrogen peroxide, 1-300 μg/mL
# Procedure: (§10) Measurement of intracellular ROS was performed using fluorescence using dichlorofluorescin diacetate (DCF-DA; Invitrogen, Carlsbad, CA, USA). Specifically, cells were washed with PBS, and then incubated with 10 μM DCF-DA at 37° C. for 20 minutes. The intracellular ROS level was measured at an excitation wavelength of 525 nm using fluorescence intensity using the micro plate reader (SYNERGY/HT, BioTek, Japan).
# as §1
# According to the procedure described in “Measurement of Cell Viability” above, normal human dermal fibroblasts were treated and cultured (co-culture), and cells or the culture solution was recovered. The concentrations of VB2 and VB3 used and the notation of the samples in FIGS. 6 and 7, which are graphs showing the results, are also similar to the above “Measurement of Cell Viability”.
# The measurement of intracellular ROS and the measurement of superoxide (SOD) were performed by the same methods as the methods described in “Measurement of Intracellular Reactive Oxygen (ROS) Production and Superoxide (SOD) against AGE” above, respectively.
# FIGS. 6 and 7 show the results of each sample when Control is 100%.
# intracellular ROS [3] = assay: Intracellular ROS against AGE (DCF-DA fluorescence); assay type: cell-based, human; conditions: AGE 100 μg/mL, 4 hours, FIG. 3
# Procedure: as §7
# Normal human dermal fibroblasts were treated with AGE (100 μg/mL) and maintained at 37° C. for 4 hours with the addition of VB2 and VB3, respectively. Here, VB2 and VB3 were added at concentrations of 1 μg/mL, 10 μg/mL, 100 μg/mL, and 300 μg/mL, respectively. In FIGS. 3 and 4, which are graphs showing the results, those to which VB2was added were denoted as “VB2-AGE”, and those to which VB3 was added were denoted as “VB3-AGE”.
# As Control, measurement was also performed on normal human dermal fibroblasts which were not treated with AGE and were held at 37° C. for 4 hours without addition of VB2 or VB3, and as an AGE single stimulation group, measurement was also performed on normal human dermal fibroblasts which were treated with AGE (100 μg/mL) and were held at 37° C. for 4 hours without addition of VB2 or VB3 (in FIGS. 3 and 4, it is denoted as “AGE”.).
# as §10, with “Specifically, cells were washed with PBS, and then incubated with 10 μM DCF-DA at 37° C. for 20 minutes.” left out
# hyaluronic acid = assay: Hyaluronic acid secreted into culture supernatant (ELISA); assay type: cell-based, human
# Procedure: as §1
# (§11) According to the procedure described in “Measurement of Cell Viability” above, normal human dermal fibroblasts were treated and cultured (co-culture), and cells or the culture solution was recovered. The concentrations of VB2 and VB3 used and the notation of the samples in FIGS. 10 and 11, which are graphs showing the results, are also similar to the above “Measurement of Cell Viability”.
# (§12) The production amounts of hyaluronic acid and Elastin were measured by an ELISA method. The results of measuring the amount of hyaluronic acid secreted from normal human dermal fibroblasts into the culture supernatant by the ELISA method are shown in FIG. 10, and the results of measuring the amount of intracellular Elastin production by the ELISA method are shown in FIG. 11.
# [4] = tested on: AGE receptor (FEEL-1, FEEL-2, CD-36, AGE-R1, AGE-R2, AGE-R3 and RAGE); assay: mRNA levels of AGE receptors by qRT-PCR in normal human dermal fibroblasts; assay type: cell-based; conditions: VB alone, no AGE, 37° C. 4 hours, compared with untreated group
# Procedure: as §7, §8, §9
# as §4, with “Kit. […]” for “Kit.”
# SOD = SOD amount against hydrogen peroxide (SOD Assay Kit); assay type: cell-based, human; conditions: added before and after 0.2 mM hydrogen peroxide, 1-300 μg/mL (H2O2 only 56% of Control)
# Procedure: Superoxide (SOD) was measured using SOD Assay Kit (Cayman Chemical, Ann arbor, MI, USA). Cells that had been subjected to various treatments were incubated for 24 hours, and then a Lysis buffer was added, homogenized, and centrifuged. Then, 10 μL of each sample was mixed with 200 μL of xanthine oxidase at room temperature. After 30 minutes, the absorbance at 450 nm was measured.
# as §1
# According to the procedure described in “Measurement of Cell Viability” above, normal human dermal fibroblasts were treated and cultured (co-culture), and cells or the culture solution was recovered. The concentrations of VB2 and VB3 used and the notation of the samples in FIGS. 6 and 7, which are graphs showing the results, are also similar to the above “Measurement of Cell Viability”. […]
# [5] = tested on: heat shock protein (Hsp104, gp96, Hsp90, Hsp70, Hsp60, and Hsp32); assay: mRNA levels of heat shock proteins by qRT-PCR in fibroblasts; assay type: cell-based, human; conditions: 4 hours
# Procedure: as §7
# First, as a co-existence group of VB and AGE, normal human dermal fibroblasts were treated with AGE (100 μg/mL), and the above VB2 (concentration after dilution: 115 μg/ml) and VB3 (concentration after dilution: 1000 μg/mL) diluted to an accurate 1/1000 amount were each added and retained at 37° C. for 4 hours.
# In addition, as the VB single stimulation group, normal human dermal fibroblasts were not treated with AGE, and the above VB2 and VB3 diluted to an accurate 1/1000 amount were each added and held at 37° C. for 4 hours. Furthermore, as the AGE single stimulation group, normal human dermal fibroblasts were treated with AGE and kept at 37° C. for 4 hours without addition of VB2 or VB3. In addition, as an untreated group, normal human dermal fibroblasts were not treated with AGE, and were kept at 37° C. for 4 hours without adding VB2 or VB3.
# Then, total RNA was extracted from the cells using Trizol reagent (Ambion), and mRNA levels of AGE receptor (FEEL-1, FEEL-2, CD-36, AGE-R1, AGE-R2, AGE-R3 and RAGE) and heat shock protein (Hsp104, gp96, Hsp90, Hsp70, Hsp60, and Hsp32) were measured by qRT-PCR (one-step quantitative reverse transcription-polymerase chain reaction) method.
# The measurement results for AGE receptor are shown in FIG. 1, and the measurement results for heat shock protein are shown in FIG. 2. In FIG. 1 and FIG. 2, for the co-existence group of AGE and VB, samples to which VB2 and VB3 were added are indicated as VB2(+)AGE and VB3(+)AGE, respectively, and these values were shown in comparison with the AGE single stimulation group. In addition, for the VB single stimulation group, samples to which VB2 and VB3 were added were indicated as VB2 alone and VB3 alone, respectively, and these values were shown in comparison with the untreated group.
# as §4
# As a PCR device, Thermal Cycler Dice Real Time System II manufactured by Takara was used. […]
# as §6
# Elastin = assay: Intracellular Elastin production (ELISA); assay type: cell-based, human
# Procedure: as §1, §11, §12
# AQP-3 = AQP-3 mRNA level under oxidative stress (qRT-PCR); assay type: cell-based, human
# Procedure: as §1, §2, §3, §4, §5, §6
# [6] = added before or after 0.2 mM hydrogen peroxide
# [7] = added in advance before oxidative stress, compared with addition after
# [8] = added in advance before applying oxidative stress
substance,measurement,setting,value
Na9[SbW9O33] [VB3],mRNA level of AQP-1,AQP-1; [6],increased
same,"AQP-1 mRNA repair ability, addition before vs after oxidative stress",AQP-1; [7],tended to have a stronger repair ability
same,mRNA level of RAGE,RAGE,significantly increased
same,mRNA level of FEEL-1,FEEL-1,significantly increased
same,mRNA level of FEEL-2,FEEL-2,significantly increased
same,maximum cell viability,"[1]; added after 0.2 mM hydrogen peroxide, 300 μg/mL, % of Control (H2O2 only 59%)",78%
same,"cell viability, trend",[1]; added after 0.2 mM hydrogen peroxide,increased in a concentration-dependent manner
same,"cell viability, trend",[1]; added in advance before 0.2 mM hydrogen peroxide,significant increase in a concentration-dependent manner
same,ROS production,intracellular ROS [2],suppressed in a concentration-dependent manner
same,intracellular ROS under AGE stimulation,intracellular ROS [3],suppress the increase in ROS
same,amount of hyaluronic acid,"hyaluronic acid; 0.2 mM hydrogen peroxide oxidative stress, culture supernatant",tended to be recovered
same,"hyaluronic acid repair ability, addition before vs after oxidative stress",hyaluronic acid; [7],tended to have a stronger repair ability
same,mRNA expression of AGE receptor,[4],did not affect
same,SOD amount,SOD,tended to be recovered in a concentration-dependent manner
same,mRNA expression of Hsp,"[5]; VB alone, no AGE, compared with untreated group",did not affect
same,mRNA levels of all Hsps other Hsp 90 among the examined Hsps,"[5]; co-existence with AGE 100 μg/mL, compared with AGE single stimulation group",significantly increased
same,Elastin production amount,Elastin; added after application of oxidative stress (H2O2 only 56% of Control),could not be recovered
same,Elastin production amount,Elastin; [8],significant recovery
same,concentration at which Elastin production amount was significantly higher than Control,Elastin; [8],300 µg/mL
same,mRNA level of AQP-3,AQP-3; [6],increased
same,"AQP-3 mRNA repair ability, addition before vs after oxidative stress",AQP-3; [7],tended to have a stronger repair ability
